These results are taken from patent US20100240040A1, “METHOD FOR SCREENING FOR SELECTIVE MODULATOR OF THE NF-KB PATHWAY ACTIVATION” (INSTITUT PASTEUR, priority 2007, published 2010).

Where a SMILES comes first, the peptide text is derived from it. Where no end group is shown, it is not given here. The star is where a group is joined. BODIPYFLEthylmaleimide = Cc1cc(C)n2c1C=C1C=CC(CCC(=O)NCCN3C(=O)CC(*)C3=O)=[N+]1[B-]2(F)F; Bodipy = not defined here

The target in one data set is T1, spCC2-LZ (MOD of NEMO) (Mus musculus, UniProt O88522).
T1 construct: spCC2-LZ, synthetic polypeptide subdomain CC2-LZ; made in house; host or cells: chemical synthesis
In words: Fluorescence anisotropy binding of labelled peptide to spCC2-LZ. Conditions: labelled peptide 10 μM, increasing spCC2-LZ; read-out: dissociation constant for spCC2-LZ. How it is done: Anisotropy measurements were performed with a QuantaMaster® fluorometer (PTI), equipped with polarizing filters for excitation and emission, and using a photomultiplier tube in the L-configuration. All experiments were carried out in a microcuvette (60 μl) at 22° C., with excitation and emission wavelengths at 495 and 513 nm. The band pass of the excitation and emission wavelengths was 2 and 4 nm, respectively. Steady-state fluorescence anisotropy, expressed as millianisotropy units was measured as described Agou et al., 2004a. All measurements were carried out in a 20 mM isoionic buffer pH 8 (10 mM acetic acide, 10 mM MES, 20 mM Tris), containing 20 mM KCl. Each data point is the result of 20 recording taken over a 2-min period. To analyse whether DR NLM binds the MOD of NEMO, fluorescent labelled BA-DR NLM (10 μM) was incubated with an increasing concentrations of spCC2-LZ and the complex formation was monitored by fluorescence polarization (P) and results are expressed as anisotropy (A) according to the formula A=2P/(3-P). The concentration of spCC2-LZ was determining by amino acid analysis (Vinolo et al; 2006). Data points were fitted to the binding isotherm equation which gives a dissociation constant of 17 μM.

Data set [1] has as its target T2, NEMO oligomers (Flag-NEMO/GFP-NEMO) (Mus musculus, UniProt O88522, A144V/E216G/P360T/S248N).
T2 construct: expressed in transfected cells; host or cells: 293T (human embryonal kidney), transient co-transfection
In words: Inhibition of NEMO oligomerization in cells (GFP-NEMO/Flag-NEMO co-transfected 293T cells). The data set is classed as cell-based, murine. The note with it: 20 μM peptide. How it is done: 293T cells were transiently co-transfected by calcium-phosphate-DNA precipitation method with 2 μg of a plasmid pcDNA3 (Invitrogen) containing the sequence of FLAG-NEMO (pcDNA3-Flag-NEMO of sequence SEQ ID NO: 24) and 0.7 μg of a plasmid pcDNA3 containing the sequence of GFP-NEMO (pcDNA3-GFP-NEMO of sequence SEQ ID NO: 26). Empty vector is added up to a total amount of DNA of 4 μg per 6 cm dish. 24 h after transfection, cells were resuspended and incubated with or without 20 μM of peptides (A-NLM or A-DR NLM) for 7 h at 37° C. Cells were resuspended and washed twice with PBS to remove excess peptides and lysed in 150 μl of lysis buffer containing a protease inhibitor mixture as indicated above (Example 1.D). Lysates were clarified at 15 000×g at 4° C. for 20 min. The amount of proteins in the clarified lysate is determined by the Bradford method with the kit DC Biorad. 100 μg of total proteins were diluted in 200 μl of interaction buffer (50 mM TrisHCl pH 7.5, 1% triton X100, 1 mM DTE, 300 mM NaCl) and incubated 1 h at 4° C. with 40 μl of agarose anti-Flag M2 beads (Sigma). The oligomers Flag-NEMO/GFP-NEMO were pulled down with the anti-Flag M2 beads and washed twice with the interaction buffer. The fluorescence of GFP-NEMO were directly read on the beads with a fluorescence microplate reader SAFAS and the clarified lysates were analysed by Western blotting using anti-Flag, anti-GFP and anti-NDPK-B antibodies (Kraeft et al., 1996; Exp Cell Res; 227:63-69) to normalize the results.
In order to better analyze the molecular mechanism of the inhibition of the NF-κB pathway by DR NLM peptide, the Inventors have developed an assay to probe NEMO oligomerization in cells as described in Example 1.I (see FIG. 5 for an overview of the cell-based assay). For this, two plasmids were used, expressing respectively GFP-NEMO and Flag-NEMO fusion proteins. The plasmids were cotransfected in human 293T cells to overexpress exogenous GFP-NEMO and Flag-NEMO fusion proteins and enforce NEMO oligomerization. The cells were then submitted to detergent lysis and Flag-NEMO proteins were immunopurified using anti-Flag agarose beads and Flag peptide as described in Example 1.I. The fluorescence associated with beads that results from an association of Flag-NEMO with GFP-NEMO subunits within hetero-oligomers allow an estimate of the amount of oligomers present in the cellular extracts.

The target of data set [2] is T3, CC2-LZ interaction with cellular polyubiquitinylated proteins (Mus musculus, UniProt O88522).
T3 construct: made in house; host or cells: chemical synthesis (bait); crude extract of JM4.5.2 cells with or without TNFα (partners)
In words: Pull-down of polyubiquitinylated proteins from JM4.5.2 extracts with biotinylated CC2-LZ, anti-ubiquitin Western blot. The data set is classed as biochemical. The note with it: 20 μM peptide, extracts of TNF-α stimulated JM4.5.2 cells. As for the experimental part: 24·10^7 JM4.5.2 cells were stimulated or not with 10 ng/ml of TNFα for 10 minutes at 37° C., washed twice with cold PBS and lysed in 900 μl of lysis buffer containing a protease inhibitor mixture as indicated in Example 1.D. Lysates were clarified at 15 000×g at 4° C. for 30 min. 150 μl of proteins were incubated 2 h at 4° C. with 150 μl of streptavidin magnetic beads (MagPrep®, Novagen) pre-incubated 1 h at 4° C. with 10 μg of biotynilated-CC2-LZ and with or without 20 μM of peptides (BA-NLM or BA-DR NLM). Beads were washed 4 times in buffer A (10 mM Hepes pH 7.5, 150 mM NaCl, 8 mM MgCl2, 10% glycerol, 0.1 mM DDM and 1 mM DTE) and resuspended in 30 μl of laemmli buffer containing 6 M Urea. Samples were analysed by Western blotting using anti-ubiquitin antibodies (Sigma) as well as anti-NDPK-B antibodies for loading controls.
Thus, the Inventors examined whether DR NLM impedes the interaction between NEMO and the K63 polyubiquitin chains. To this end, they developed a pull down assay which uses the a peptide comprising the CC2 and the LZ domains of NEMO as a bait to pull down the polyubiquitinylated proteins as described in Example 1.J and depicted in FIG. 7A. […] After extensive washing of beads, all mono and polyubiquitinylated proteins bound to CC2-LZ were analysed by Western blot using anti-ubiquitin antibody (Sigma).

Data set [3] has as its target T4, Lys63-linked polyubiquitin chains (Homo sapiens, UniProt P0CG47).
T4 construct: the Lys63-linked polyubiquitin chains; purchased Boston Biochem
In words: In vitro binding assay by fluorescence polarization to polyubiquitin chains. The note with it: tag-free peptide.

Data set [4] can be described thus: Circular dichroism and gel filtration, self-association of peptides. The data set is classed as physicochemical. The note with it: peptide concentration up to 100 μM; data not shown. How it is done: Far-UV circular dichroism (CD) measurements were performed with an Aviv 215 spectropolarimeter with samples diluted in 10 mM NaPO4 at pH 7.
Then, unlike the LZ peptide, DR NLM peptide as well as NLM peptide are unable to self-associate. Self association of LZ peptide is described by Agou et al., 2004b.

Another data set concerns NF-κB pathway. Conditions: cited from earlier work; for IC50 of inhibition of NF-κB activation: reported in WO2005/027959, Agou et al., 2004b.

T2 sequence (O88522 with tags, fused parts or gaps A144V/E216G/S248N/P360T limits assumed): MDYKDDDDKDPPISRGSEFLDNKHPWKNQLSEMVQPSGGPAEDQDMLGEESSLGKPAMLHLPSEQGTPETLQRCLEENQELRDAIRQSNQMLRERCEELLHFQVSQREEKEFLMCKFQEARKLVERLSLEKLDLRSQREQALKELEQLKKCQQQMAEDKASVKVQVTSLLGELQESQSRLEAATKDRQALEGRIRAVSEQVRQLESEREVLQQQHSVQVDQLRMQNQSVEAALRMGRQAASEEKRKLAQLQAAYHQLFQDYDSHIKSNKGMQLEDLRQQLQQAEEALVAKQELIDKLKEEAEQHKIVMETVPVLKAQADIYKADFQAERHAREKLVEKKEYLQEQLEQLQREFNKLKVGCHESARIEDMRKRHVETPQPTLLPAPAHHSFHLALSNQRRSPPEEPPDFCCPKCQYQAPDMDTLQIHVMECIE
T1 sequence (O88522 253-336): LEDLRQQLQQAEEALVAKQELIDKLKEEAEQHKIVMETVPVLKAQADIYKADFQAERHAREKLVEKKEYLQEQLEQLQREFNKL
T3 sequence (O88522 253-336): as above

With `CC[C@H](C)[C@H](NC(=O)[C@H](CC(=O)O)NC(=O)[C@H](C)NC(=O)[C@H](CCC(N)=O)NC(=O)[C@H](C)NC(=O)[C@H](CCCCN)NC(=O)[C@H](CC(C)C)NC(=O)[C@H](CCCCN)NC(=O)[C@H](CCCCN)NC(=O)[C@H](Cc1c[nH]c2ccccc12)NC(=O)[C@H](CCCCN)NC(=O)[C@H](CCSC)NC(=O)[C@H](CCCNC(=N)N)NC(=O)[C@H](CCCNC(=N)N)NC(=O)[C@H](CC(N)=O)NC(=O)[C@H](CCC(N)=O)NC(=O)[C@H](Cc1ccccc1)NC(=O)[C@H](Cc1c[nH]c2ccccc12)NC(=O)[C@@H](NC(=O)[C@H](CCCCN)NC(=O)[C@@H](NC(=O)[C@H](CCC(N)=O)NC(=O)[C@H](CCCNC(=N)N)NC(=O)[C@H](CSC1CC(=O)N(CCNC(=O)CCC2=[N+]3C(=Cc4c(C)cc(C)n4[B-]3(F)F)C=C2)C1=O)NC(C)=O)[C@@H](C)CC)[C@@H](C)CC)C(=O)N[C@@H](Cc1ccc(O)cc1)C(=O)N[C@@H](CCCCN)C(=O)N[C@@H](C)C(=O)N[C@@H](CCCNC(=N)N)C(=O)N[C@@H](Cc1ccccc1)C(=O)N[C@@H](CCC(N)=O)C(=O)N[C@@H](C)C(=O)N[C@@H](CCC(=O)O)C(=O)N[C@@H](CCCNC(=N)N)C(=O)N[C@@H](Cc1c[nH]cn1)C(=O)N[C@@H](C)C(=O)N[C@@H](CCCNC(=N)N)C(=O)N[C@@H](CCC(=O)O)C(=O)N[C@@H](CCCCN)C(N)=O` (stereo partly shown) [BA-DR NLM] (Ac-C(BODIPYFLEthylmaleimide)RQIKIWFQNRRMKWKKLKAQADIYKARFQAERHAREK-NH2; N-terminus and C-terminus assumed), the Kd at spCC2-LZ (MOD of NEMO) amounted to 17 µM. The “amount of NEMO oligomers (fluorescent NEMO subunit recovered)” value (“amount of NEMO oligomers” below) in data set [1] is reported as “same amount of NEMO oligomers in the absence or in the presence”.

Turning to `CC[C@H](C)[C@H](NC(=O)[C@H](CC(=O)O)NC(=O)[C@H](C)NC(=O)[C@H](CCC(N)=O)NC(=O)[C@H](C)NC(=O)[C@H](CCCCN)NC(=O)[C@H](CC(C)C)NC(=O)[C@H](CCCNC(=N)N)NC(=O)[C@H](CCCNC(=N)N)NC(=O)[C@H](CCCNC(=N)N)NC(=O)[C@H](CCCNC(=N)N)NC(=O)[C@H](CCCNC(=N)N)NC(=O)[C@H](CCCNC(=N)N)NC(=O)[C@H](CCCNC(=N)N)NC(=O)[C@H](CSC1CC(=O)N(CCNC(=O)CCC2=[N+]3C(=Cc4c(C)cc(C)n4[B-]3(F)F)C=C2)C1=O)NC(C)=O)C(=O)N[C@@H](Cc1ccc(O)cc1)C(=O)N[C@@H](CCCCN)C(=O)N[C@@H](C)C(=O)N[C@@H](CCCNC(=N)N)C(=O)N[C@@H](Cc1ccccc1)C(=O)N[C@@H](CCC(N)=O)C(=O)N[C@@H](C)C(=O)N[C@@H](CCC(=O)O)C(=O)N[C@@H](CCCNC(=N)N)C(=O)N[C@@H](Cc1c[nH]cn1)C(=O)N[C@@H](C)C(=O)N[C@@H](CCCNC(=N)N)C(=O)N[C@@H](CCC(=O)O)C(=O)N[C@@H](CCCCN)C(N)=O` (stereo partly shown) [BR7-DR NLM] (Ac-C(BODIPYFLEthylmaleimide)RRRRRRRLKAQADIYKARFQAERHAREK-NH2; N-terminus and C-terminus assumed), the Kd at spCC2-LZ (MOD of NEMO) is 21 µM.

Consider `CC[C@H](C)[C@H](NC(=O)[C@H](CC(=O)O)NC(=O)[C@H](C)NC(=O)[C@H](CCC(N)=O)NC(=O)[C@H](C)NC(=O)[C@H](CCCCN)NC(=O)[C@H](CC(C)C)NC(C)=O)C(=O)N[C@@H](Cc1ccc(O)cc1)C(=O)N[C@@H](CCCCN)C(=O)N[C@@H](C)C(=O)N[C@@H](CC(=O)O)C(=O)N[C@@H](Cc1ccccc1)C(=O)N[C@@H](CCC(N)=O)C(=O)N[C@@H](C)C(=O)N[C@@H](CCC(=O)O)C(=O)N[C@@H](CCCNC(=N)N)C(=O)N[C@@H](Cc1c[nH]cn1)C(=O)N[C@@H](C)C(=O)N[C@@H](CCCNC(=N)N)C(=O)N[C@@H](CCC(=O)O)C(=O)N[C@@H](CCCCN)C(N)=O` [NLM] (Ac-LKAQADIYKADFQAERHAREK-NH2; N-terminus and C-terminus assumed), for which the “inhibition of CC2-LZ interaction with polyubiquitinylated proteins” value in data set [2] is “no inhibition was observed”. Further, the “cooperativity index (Hill coefficient) n” value in data set [3] was 8. Also, the Kd in data set [3] (read-out: dissociation constant for Lys63-linked polyubiquitin chains) came to 180 µM. Also, the “oligomeric state / self-association” value in data set [4] is given as “behave as monomer”. For the same molecule, the “inhibition of NF-κB activation” value in the data set with NF-κB pathway (reported in WO 2005/027959) is given as “inhibit NF-κB activation”.

Regarding “BA-LZ L322P/L329P: BA-LZ bearing a double mutation within the coiled-coil interface, SEQ ID NO: 22 (C(Bodipy)RQIKIWFQNRRMKWKKLKAQADIYKADFQAERHAREKLVEKKEYPQEQLEQPQREFNKL; reading uncertain)”, the “amount of NEMO oligomers” value in data set [1] is “no dissociation of NEMO oligomers was observed”.

Turning to “BA-LZ: Bodipy-antennapedia tagged LZ peptide, SEQ ID NO: 4 (human 5) (C(Bodipy)RQIKIWFQNRRMKWKKLKAQADIYKADFQAERHAREKLVEKKEYLQEQLEQLQREFNKL; reading uncertain)”, the “amount of NEMO oligomers” value in data set [1] is “strong decrease in the amount of fluorescent NEMO subunit”.

As to “BA-NLM: NLM fused at N-terminus with antennapedia and conjugated with bodipy (C(Bodipy)RQIKIWFQNRRMKWKKLKAQADIYKADFQAERHAREK; reading uncertain)”, the “amount of NEMO oligomers” value in data set [1] was “same amount of NEMO oligomers in the absence or in the presence”.

On to “LKAQADIYKADFQAERHAREKLVEKKEYLQEQLEQLQREFNKL [spLZ]”, for which the “IC50 of inhibition of NF-κB activation” value with NF-κB pathway was “in the μM range”.

On to “SKGMQLEDLRQQLQQAEEALVAKQELIDKLKEEAEQHKIV [spCC2]”, for which, in the data set with NF-κB pathway, the “IC50 of inhibition of NF-κB activation” value is listed as “in the μM range”.
